Values of other authors as cited in patent publication US7947285B2, “Methods for preventing post endoscopic retrograde cholangiopancreatography pancreatitis” (priority 2003, dated 2011).

Experiments:
post-ERCP pancreatitis [1] = settings: high-risk patients; two large controlled trials; cited from earlier work
post-ERCP pancreatitis [2] = settings: prophylaxis; meta-analysis of 28 clinical trials; cited from earlier work
post-ERCP pancreatitis [3] = settings: patients without pancreas divisum; retrospective review; cited from earlier work
post-ERCP pancreatitis [4] = settings: cited from earlier work

Compound	preventing post-ERCP pancreatitis (post-ERCP pancreatitis [1])	reducing the frequency of post-ERCP pancreatitis (post-ERCP pancreatitis [2])	incidence of post-ERCP pancreatitis (post-ERCP pancreatitis [3])	effect on clinical course of post-ERCP pancreatitis (post-ERCP pancreatitis [4]; human, in vivo)	effect on hyperamylasemia (post-ERCP pancreatitis [4]; post-ERCP)
CCOC(=O)c1ccc(OC(=O)CCCCCNC(=N)N)cc1 [gabexate]	ineffective	effective	–	–	–
secretin	–	–	might decrease the incidence	–	–
C[C@@H](O)[C@@H]1NC(=O)[C@H](CCCCN)NC(=O)[C@@H](Cc2c[nH]c3ccccc23)NC(=O)[C@H](Cc2ccccc2)NC(=O)[C@@H](NC(=O)[C@H](N)Cc2ccccc2)CSSC[C@@H](C(=O)N[C@H](CO)[C@@H](C)O)NC1=O [octreotide]	ineffective	–	–	has not been show to alter the clinical course	reduces hyperamylasemia
